In PMC9112895, “Selective Inhibition of Plasmodium falciparum ATPase 6 by Artemisinins and Identification of New Classes of Inhibitors after Expression in Yeast” (Antimicrobial Agents and Chemotherapy, 2022) one finds IC50 data, which are given here for one compound.

This test has as its target T1, A623E PfATP6 (Plasmodium falciparum, UniProt Q08853, A623E).
T1 construct: expressed in transfected cells; host or cells: Saccharomyces cerevisiae K667-derived strain
T1 sequence (Q08853 1-1228 A623E): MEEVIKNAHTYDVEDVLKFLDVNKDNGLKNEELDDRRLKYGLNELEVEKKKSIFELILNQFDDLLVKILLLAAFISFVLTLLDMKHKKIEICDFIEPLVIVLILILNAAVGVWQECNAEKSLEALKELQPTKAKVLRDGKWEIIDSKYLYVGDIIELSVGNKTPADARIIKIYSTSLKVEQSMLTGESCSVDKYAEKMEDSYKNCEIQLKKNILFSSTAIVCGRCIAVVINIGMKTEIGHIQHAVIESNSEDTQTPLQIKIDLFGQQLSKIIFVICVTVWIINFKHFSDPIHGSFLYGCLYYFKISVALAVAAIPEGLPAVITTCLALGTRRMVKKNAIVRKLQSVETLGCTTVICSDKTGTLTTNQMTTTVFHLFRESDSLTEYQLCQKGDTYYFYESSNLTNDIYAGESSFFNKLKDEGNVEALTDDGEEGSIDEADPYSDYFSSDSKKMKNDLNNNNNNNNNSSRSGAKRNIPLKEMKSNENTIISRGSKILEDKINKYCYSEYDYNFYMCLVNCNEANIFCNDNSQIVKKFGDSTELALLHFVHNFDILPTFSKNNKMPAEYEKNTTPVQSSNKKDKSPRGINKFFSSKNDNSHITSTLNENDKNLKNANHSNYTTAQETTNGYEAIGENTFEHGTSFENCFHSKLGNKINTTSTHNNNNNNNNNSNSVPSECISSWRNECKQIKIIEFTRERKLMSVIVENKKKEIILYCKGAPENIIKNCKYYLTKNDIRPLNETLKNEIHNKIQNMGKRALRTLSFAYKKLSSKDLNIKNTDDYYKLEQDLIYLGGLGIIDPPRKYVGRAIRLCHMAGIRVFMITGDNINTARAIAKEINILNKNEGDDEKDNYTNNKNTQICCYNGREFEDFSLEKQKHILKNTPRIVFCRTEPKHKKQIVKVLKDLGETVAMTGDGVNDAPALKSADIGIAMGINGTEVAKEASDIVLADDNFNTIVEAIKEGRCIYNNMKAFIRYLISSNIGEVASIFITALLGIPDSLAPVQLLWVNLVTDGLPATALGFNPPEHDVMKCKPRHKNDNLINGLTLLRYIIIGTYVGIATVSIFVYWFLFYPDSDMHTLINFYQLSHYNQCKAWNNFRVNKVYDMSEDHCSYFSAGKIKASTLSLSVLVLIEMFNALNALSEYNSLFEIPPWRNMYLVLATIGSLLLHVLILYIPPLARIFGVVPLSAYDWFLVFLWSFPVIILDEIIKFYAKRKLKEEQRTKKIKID
The experiment in a line: Yeast whole-cell assay, PfATP6 A623E mutant. The format is cell-based. As to conditions: read-out: IC50 (mean ± SD). The procedure: Yeast transformations were performed using the method described by Gietz and Schiestl ([48]), and transformants were selected by an uracil auxotrophic marker. Transformations were confirmed by colony PCR. Both K667 and K667Δpdr5::HIS were transformed with the following plasmids: pUGpd plasmid as a vector-only control (derived from pRS316 [49]); br434 plasmid (derived from pRS316 [50]) containing the SERCA1a coding region from rabbit skeletal fast-twitch muscle (pbr434-SERCA1a); and pUGpd containing the yeast-optimized coding region of PfATP6 from Plasmodium falciparum (pUGpd-PfATP6). Site-directed mutagenesis was performed on the SERCA1a coding region to produce the mutation E255L in the protein. Mutations were also introduced into the PfATP6 coding region to produce mutations L263E, A623E, and S769N and the double mutation A623E/S769N ([13]).
The screening assay used here was developed from the protocol used by Pulcini et al. ([13]). […] The optimal calcium concentration was periodically monitored and, if necessary, adjusted using a calcium concentration range of 10 to 30 mM. […] The yeast growth was estimated from the absorbance at 620 nm in a Tecan plate reader. […] The data collected were analyzed using GraphPad Prism v9.0 (GraphPad software, San Diego, CA, U.S.A).

Each structure is given as a SMILES string.

By IC50 is commonly meant the concentration at which inhibition is half-maximal. As to `CC(=O)C1=C(O)[C@@H]2[C@H]3c4c[nH]c5cccc(c45)C[C@H]3C(C)(C)N2C1=O` [CPA, cyclopiazonic acid], the IC50 was determined as 5.86 µM.
